Earlier results on one compound are cited in patent US20130004575A1, “CONTROLLED RELEASE FORMULATIONS USING INTELLIGENT POLYMERS” (VALEANT INTERNATIONAL (BARBADOS) SRL, priority 1997, published 2013).

The conditions of the data set: room temperature.

Take `CC1(C)O[C@@H]2[C@@H](CO[C@@]3(COS(N)(=O)=O)OC(C)(C)O[C@@H]23)O1` [topiramate, 2,3:4,5-bis-O-(1-methylethylidene)-β-D-fructopyranose sulfamate]: the “solubility of topiramate in water” value is “about 9.8 mg/mL”.
